In patent US20230151003A1, “COMPOUNDS AND METHODS OF USE” (Exelixis, Inc., priority 2020, published 2023):

Molecular target: T1, AXL (Homo sapiens, UniProt P30530)
T1 construct: endogenous in cells; host or cells: A-172 glioblastoma cells (ATCC #CRL-1620)
T1 sequence (P30530 26-894): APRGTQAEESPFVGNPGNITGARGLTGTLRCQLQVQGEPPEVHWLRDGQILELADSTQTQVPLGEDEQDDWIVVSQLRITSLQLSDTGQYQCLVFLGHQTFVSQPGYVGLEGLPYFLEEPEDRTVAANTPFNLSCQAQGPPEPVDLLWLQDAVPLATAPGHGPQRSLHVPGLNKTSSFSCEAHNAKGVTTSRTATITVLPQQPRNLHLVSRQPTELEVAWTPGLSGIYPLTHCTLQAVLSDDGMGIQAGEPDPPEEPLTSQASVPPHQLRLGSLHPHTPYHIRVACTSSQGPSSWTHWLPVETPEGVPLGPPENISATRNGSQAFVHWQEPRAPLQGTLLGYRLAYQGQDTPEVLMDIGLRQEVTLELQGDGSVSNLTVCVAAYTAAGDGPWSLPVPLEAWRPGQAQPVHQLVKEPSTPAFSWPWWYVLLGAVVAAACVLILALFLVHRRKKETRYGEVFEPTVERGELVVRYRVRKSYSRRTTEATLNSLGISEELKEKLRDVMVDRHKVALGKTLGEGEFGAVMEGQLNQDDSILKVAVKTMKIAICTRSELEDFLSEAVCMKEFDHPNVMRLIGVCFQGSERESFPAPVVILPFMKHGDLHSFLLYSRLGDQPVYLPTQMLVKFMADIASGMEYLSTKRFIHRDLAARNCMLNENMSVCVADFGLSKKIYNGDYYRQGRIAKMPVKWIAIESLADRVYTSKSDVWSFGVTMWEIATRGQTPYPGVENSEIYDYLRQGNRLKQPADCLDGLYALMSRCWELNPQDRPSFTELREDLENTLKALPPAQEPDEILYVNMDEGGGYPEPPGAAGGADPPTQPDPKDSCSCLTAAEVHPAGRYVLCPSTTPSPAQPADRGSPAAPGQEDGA
Test: AXL autophosphorylation ELISA in A-172 cells
Format: cell-based
Conditions: Table 3 Cellular Activities, Gas6-stimulated, phospho-AXL ELISA
Outline: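 Phospho-AXL in lysates measured by ELISA after Gas6 stimulation (1 μg/mL, 15 min) of A-172 cells pre-incubated 1 h with an 8-point compound dilution series in 0.3% DMSO after 24 h serum starvation. IC50 by 4-parameter logistic fit, with DMSO-treated and reference-inhibitor wells as 100% and 0% activity.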

IC50, ≤ 0.1 µM:
COc1cc2nccc(Oc3ccc(NC(=O)c4c(C)ncc(-c5cc(C)cs5)c4O)cc3F)c2nc1OC [Compound 125, N-[4-[(6,7-Dimethoxy-1,5-naphthyridin-4-yl)oxy]-3-fluorophenyl]-4-hydroxy-2-methyl-5-(4-methylthiophen-2-yl)pyridine-3-carboxamide]
COc1cnc2c(Oc3ccc(NC(=O)c4cnc(C)c(-c5ccco5)c4O)cc3F)ccnc2c1 [Compound 96, N-[3-Fluoro-4-[(7-methoxy-1,5-naphthyridin-4-yl)oxy]phenyl]-5-(2-furyl)-4-hydroxy-6-methyl-pyridine-3-carboxamide]
COc1cc2nccc(Oc3ccc(NC(=O)c4c(C)n(C)c(C)c(-c5cccs5)c4=O)cc3)c2nc1OC [Compound 167, N-[4-[(6,7-Dimethoxy-1,5-naphthyridin-4-yl)oxy]phenyl]-1,2,6-trimethyl-4-oxo-5-thiophen-2-ylpyridine-3-carboxamide]
COc1cc2nccc(Oc3ccc(NC(=O)c4cnc(C)c(-c5ccc(C)s5)c4O)cc3F)c2nc1OC [Compound 94, N-[4-[(6,7-Dimethoxy-1,5-naphthyridin-4-yl)oxy]-3-fluoro-phenyl]-4-hydroxy-6-methyl-5-(5-methyl-2-thienyl) pyridine-3-carboxamide]
COc1cc2nccc(Oc3ccc(NC(=O)c4cnc(C)c(-c5cccs5)c4O)cc3F)c2nc1OC [Compound 90, N-[4-[(6,7-Dimethoxy-1,5-naphthyridin-4-yl)oxy]-3-fluoro-phenyl]-4-hydroxy-6-methyl-5-(2-thienyl)pyridine-3-carboxamide]
COc1cc2nccc(Oc3ccc(NC(=O)c4cnc(C)c(-c5cscn5)c4O)cc3F)c2nc1OC [Compound 142, N-[4-[(6,7-Dimethoxy-1,5-naphthyridin-4-yl)oxy]-3-fluorophenyl]-4-hydroxy-6-methyl-5-(1,3-thiazol-4-yl)pyridine-3-carboxamide]
COc1cnc2c(Oc3ccc(NC(=O)c4cnc(C)c(-c5ccc(C)o5)c4O)cc3F)ccnc2c1 [Compound 97, N-[3-Fluoro-4-[(7-methoxy-1,5-naphthyridin-4-yl)oxy]phenyl]-4-hydroxy-6-methyl-5-(5-methyl-2-furyl)pyridine-3-carboxamide]
COc1cc2nccc(Oc3ccc(NC(=O)c4c(C)n(C)c(C)c(-c5ccco5)c4=O)cc3F)c2nc1OC [Compound 160, N-[4-[(6,7-Dimethoxy-1,5-naphthyridin-4-yl)oxy]-3-fluorophenyl]-5-(furan-2-yl)-1,2,6-trimethyl-4-oxopyridine-3-carboxamide]
COc1cc2nccc(Oc3ccc(NC(=O)c4c(C)nc(C)c(-c5cc(C(F)(F)F)nn5C)c4O)cc3F)c2nc1OC [Compound 138]
COc1cnc2c(Oc3ccc(NC(=O)c4cnc(C)c(-c5ccsc5)c4O)cc3F)ccnc2c1 [Compound 98, N-[3-Fluoro-4-[(7-methoxy-1,5-naphthyridin-4-yl)oxy]phenyl]-4-hydroxy-6-methyl-5-(3-thienyl)pyridine-3-carboxamide]
COc1cc2nccc(Oc3ccc(NC(=O)c4c(C)ncc(-c5ccc(C)o5)c4O)cc3F)c2nc1OC [Compound 120, N-[4-[(6,7-Dimethoxy-1,5-naphthyridin-4-yl)oxy]-3-fluorophenyl]-4-hydroxy-2-methyl-5-(5-methylfuran-2-yl)pyridine-3-carboxamide]
COc1cc2nccc(Oc3ccc(NC(=O)c4cnc(C)c(-c5sccc5C)c4O)cc3F)c2nc1OC [Compound 103, N-[4-[(6,7-Dimethoxy-1,5-naphthyridin-4-yl)oxy]-3-fluoro-phenyl]-4-hydroxy-6-methyl-5-(3-methyl-2-thienyl) pyridine-3-carboxamide]
COc1cc2nccc(Oc3ccc(NC(=O)c4c(C)nc(C)c(-c5cc(C)nn5C)c4O)cc3F)c2nc1OC [Compound 109, N-[4-[(6,7-Dimethoxy-1,5-naphthyridin-4-yl)oxy]-3-fluoro-phenyl]-5-(2,5-dimethylpyrazol-3-yl)-4-hydroxy-2,6-dimethyl-pyridine-3-carboxamide]
